Active and inactive are the calls of the source. The calls are words filed in the database; no cut-off is given here.
Columns and labels:
[1] = tested on: Saccharomyces cerevisiae; assay: DNA damaging activity against yeast 1138 mutant assessed as drug level required to produce 12 mm zone of inhibition; type: functional
[2] = tested on: A2780; assay: Cytotoxicity against human A2780 cells after 48 hrs by alamar blue assay; type: functional, cell-based

SMILES | Activity [1] | Activity [2] | IC12 [1] | IC50 ([2]; A2780, 48 h)
C=C[C@](C)(O)CC[C@]1(C)C2=CCC[C@](C)(C(=O)N[C@H](C(=O)OC)c3ccccc3)[C@H]2CC[C@H]1C | inactive | inactive | – | –
C=C[C@](C)(O)CC[C@]1(C)C2=CCC[C@](C)(C(=O)N[C@@H](C(=O)OC)c3ccccc3)[C@H]2CC[C@H]1C | inactive | inactive | – | –
C=C[C@](C)(O)CC[C@]1(C)C2=CCC[C@](C)(C(=O)O)[C@H]2CC[C@H]1C | – | – | 925 µg/mL | > 40 µg/mL
C=C[C@](C)(O)CC[C@]1(C)C2=CC(=O)C[C@](C)(C(=O)O)[C@H]2CC[C@H]1C | inactive | inactive | – | –
